# Laboratory results from patent US5324725A, “7-fused 2-(piperazinoalkyl) indole derivatives, intermediates and compositions thereof” (Kali-Chemie Pharma GmbH, priority 1991, dated 1994).
# Assays:
# [1] = biological target: T1, cyclooxygenase (Mus musculus, UniProt P22437); experiment: Cyclooxygenase inhibition: release of 6-keto-PGF1 α from zymosan-stimulated mouse peritoneal macrophage cells; format: cell-based; conditions: 10^-5 mol/l, read-out: In vitro % inhibition effect on the release of 6-keto-PGF1 α
# T1 construct: A cell suspension containing peritoneal cells of male mice 8-10 weeks old was obtained; endogenous in cells; host or cells: mouse peritoneal macrophages (male mice 8-10 weeks old), zymosan-stimulated
# T1 sequence (P22437 27-602): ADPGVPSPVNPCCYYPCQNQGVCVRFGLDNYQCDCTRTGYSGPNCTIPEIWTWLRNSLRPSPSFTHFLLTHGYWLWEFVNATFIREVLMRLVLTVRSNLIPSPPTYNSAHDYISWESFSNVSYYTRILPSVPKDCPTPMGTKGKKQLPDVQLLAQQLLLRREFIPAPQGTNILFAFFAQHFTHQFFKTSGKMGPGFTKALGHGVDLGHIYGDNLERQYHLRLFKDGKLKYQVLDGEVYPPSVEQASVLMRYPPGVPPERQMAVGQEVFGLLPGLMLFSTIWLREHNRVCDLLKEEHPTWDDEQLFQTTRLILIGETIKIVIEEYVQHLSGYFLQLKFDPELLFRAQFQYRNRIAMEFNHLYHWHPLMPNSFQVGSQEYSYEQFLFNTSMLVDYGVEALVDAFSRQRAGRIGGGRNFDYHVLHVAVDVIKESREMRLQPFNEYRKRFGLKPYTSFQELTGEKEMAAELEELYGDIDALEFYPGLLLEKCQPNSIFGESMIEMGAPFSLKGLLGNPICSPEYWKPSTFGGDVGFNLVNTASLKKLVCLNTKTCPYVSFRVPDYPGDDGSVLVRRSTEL
# From the text: (§1) 5. In vitro determination of cyclooxygenase inhibition and 5-lipoxygenase inhibition.
# (§2) After activation of the cell, arachidonic acid contained in cell membranes is metabolized in two ways. Leukotrienes, inter alia leukotriene C4, are formed under the action of the enzyme 5-lipoxygenase (5-LO), and prostanoids are formed under the action of the enzyme cyclooxygenase (CO). In in vitro systems, the metabolites are secreted from the cell.
# (§3) To investigate the cyclooxygenase-inhibiting and the 5-lipoxygenase-inhibiting properties, the inhibitory effect of the test substances on the biosynthesis of the arachidonic acid derivatives leukotriene C4 (LTC4) and 6-ketoprostaglandin F1 α (6-keto-PGF1 α) is determined in vitro on mouse peritoneal macrophage cells. This was accomplished by determining the LTC4 and 6-keto-PGF1 α contents in a culture medium of mouse peritoneal macrophage cells by zymosan stimulation as described by Scott et al. (J. Exp. Med. 152 (1980), 324-335) and by Fradin et al. (Prostaglandins, 33 (1987), 579-589).
# (§4) A cell suspension containing peritoneal cells of male mice 8-10 weeks old was obtained in a known manner. A commercially available cell culture solution (RPMI 1640 from Messrs. Gibco) was used to which heparin (I0 international units/ml) and antibiotics were added according to the recipe of Bonney et al. (Biochem. J. 176 (1978) 422-433). The cell suspension was adjusted to a cell concentration of 10^6 cells per ml and distributed uniformly on titer plates containing […] (wells). These were kept for two hours in a humidified incubator filled with air enriched with 7% CO2. Cells not adhering to the titer cell walls were then removed by washing. The remaining macrophage cells adhering to the walls were incubated for about 12 hours in a suspension medium to which 0.1% bovine serum albumin (BSA) were added. The suspension medium was then replaced by a Hanks balanced salt solution (HBSS) containing 10 mM Hepes (hydroxyethyl-piperazinoethanesulfonic acid), to which a 0.1% strength solution of the test substances in aqueous, 1% strength dimethylformamide or only the solvent had been added. After 15 minutes the arachidonic acid metabolism was stimulated by adding 10 particles of zymosan (=glycoproteinmixture, isolated from cell walls of beer yeast, Saccharomyces cerevisiae, manufactured by Sigma Chemical Co., Munich) per titer cell. After 2 hours, samples of each of the supernatant liquids were investigated for their 6-keto-PGF1 α and LTC4 contents by means of an enzyme immunoassay (EIA) carried out by the method of Pradelles et al. (Analytical Chem. 57 (1985), 1170-1173). The determination of LTC4 and the determination of 6-keto-PGF1 α were each carried out in comparison with a comparative scale on suitable dilutions of the samples (1:50 to 1:250 for the LTC4 determination and 1:250 to 1:1250 for the 6-keto-PGF1 α determination). To determine the inhibitory effect of a 10^-5 molar concentration of the compounds, the amount of reference eicosanoids was determined and the inhibitory effect was calculated from this in % inhibition compared to the measurements of the zymosan controls.
# [2] = biological target: T2, 5-lipoxygenase (Mus musculus, UniProt P48999); experiment: 5-lipoxygenase inhibition: release of LTC4 from zymosan-stimulated mouse peritoneal macrophage cells; format: cell-based; conditions: 10^-5 mol/l, read-out: In vitro % inhibition effect on the release of LTC4
# T2 construct: A cell suspension containing peritoneal cells of male mice 8-10 weeks old was obtained; endogenous in cells; host or cells: mouse peritoneal macrophages (male mice 8-10 weeks old), zymosan-stimulated
# T2 sequence (P48999 1-674): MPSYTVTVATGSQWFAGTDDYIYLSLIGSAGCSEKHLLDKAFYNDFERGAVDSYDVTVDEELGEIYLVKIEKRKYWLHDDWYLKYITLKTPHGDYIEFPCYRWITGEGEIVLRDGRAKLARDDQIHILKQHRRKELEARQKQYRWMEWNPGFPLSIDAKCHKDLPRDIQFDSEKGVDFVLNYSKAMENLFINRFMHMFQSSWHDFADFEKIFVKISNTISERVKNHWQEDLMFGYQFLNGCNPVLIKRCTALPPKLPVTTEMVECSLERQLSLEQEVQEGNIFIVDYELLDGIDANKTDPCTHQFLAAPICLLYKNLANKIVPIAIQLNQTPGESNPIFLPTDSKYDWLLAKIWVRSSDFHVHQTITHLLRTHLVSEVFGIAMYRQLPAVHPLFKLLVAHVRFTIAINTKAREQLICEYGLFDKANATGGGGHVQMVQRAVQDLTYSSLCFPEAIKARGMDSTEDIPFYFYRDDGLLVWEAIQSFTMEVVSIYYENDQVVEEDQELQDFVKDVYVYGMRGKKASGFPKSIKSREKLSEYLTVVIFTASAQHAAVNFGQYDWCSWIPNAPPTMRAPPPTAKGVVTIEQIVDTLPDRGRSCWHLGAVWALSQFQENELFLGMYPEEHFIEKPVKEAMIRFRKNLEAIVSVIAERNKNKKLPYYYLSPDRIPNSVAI
# From the text: as §1, §2, §3, §4
# [3] = test system: Histamine-induced anaphylactoid reactions; experiment: Inhibition of anaphylactoid cutaneous reaction induced by histamine; format: in vivo, rat (Sprague-Dawley); conditions: Rattus norvegicus, 1 h; rats, 2 × 10^-5 mol/kg p.o., one hour before challenge; histamine intradermal
# Protocol: (§5) 1. Determination of the inhibition of passive cutaneous anaphylaxis (P.C.A.) and of the anaphylactoid cutaneous reaction induced by histamine.
# (§6) The determination of the inhibition of passive cutaneous anaphylaxis and the anaphylactoid cutaneous reaction induced by histamine was carried out as follows:
# To determine the histamine-induced anaphylactoid skin reaction, the animals were injected intradermally in the flank opposite to the antiserum administration with 50 μl of a physiological saline solution containing 0.8 mg/ml of histamine directly before the i.v. injection of the solution containing the ovalbumin and the blue dye.
# (§7) On the test days, the test substances were dissolved in distilled water which contained 1% by volume of dimethylformamide and 1% by volume of Tween®20 (polyoxyethylene(20) sorbitan monolaurate). One hour before the challenging ovalbumin administration, each animal received 2×10^-5 mol/kg of test substance administered orally in 0.5 ml of solution. A control group received only the solvent for comparison.
# (§8) The oedematous anaphylactic (P.C.A.) and anaphylactoid (histamine-induced) reactions caused by the challenging i.v. ovalbumin injection, which are manifested by oedema formation, swelling and exudation of blue dye, were evaluated 30 minutes after challenge by the i.v. ovalbumin injection. This was done by visual determination of the extent to which the blue dye emerges at the sites of oedema formation. The percentage inhibition of anaphylactic and anaphylactoid reactions caused by the test substances was determined in comparison with the reactions of the control animals not treated with test substance with the aid of comparison scales.
# (§9) The results obtained by the above test methods using compounds of the formula I are shown in the following Table A. The example numbers given for the compounds of formula I relate to the following preparation examples.
# [4] = Determination of the minimum toxic dose; design: species or system male mice; conditions: mouse, in vivo, po, 300 mg/kg, 1440 min
# Protocol: 2. Determination of the minimum toxic dose.
# Maximum doses of 300 mg/kg of the test substance were administered orally to male mice weighing 20-25 g. The animals were observed carefully for 3 hours for toxicity symptoms. In addition, all symptoms and deaths over a period of 24 hours after administration were recorded. Associated symptoms were also observed and recorded. If death or severe toxic symptoms were observed, further mice were administered increasingly lower doses. The lowest dose which caused death or severe toxic symptoms is given as the minimum toxic dose in the following Table B.
# [5] = test system: P.A.F.-induced aggregation of platelets from rabbit blood; experiment: Anti-P.A.F. effect in vitro: inhibition of P.A.F.-induced platelet aggregation; format: cell-based, rabbit (New Zealand hybrids); conditions: Oryctolagus cuniculus, Platelet, test substance concentration 10^-5 mol/l
# From the text: 4. Determination of anti-P.A.F. effect in vitro.
# Platelet-activating factor (P.A.F.) is a phospholipid mediator which has several effects. The activation of platelet aggregation leads to the induction of protracted broncho contractions and hyperreactivity of the airways.
# The effects of the test substances on platelet aggregation induced by adding P.A.F. to a platelet suspension obtained from rabbit blood was investigated by the method described by Mikashima et al. (Jap. J. Pharmacol. 44 (1987) 387-391).
# A suspension of platelets originating from rabbit blood was used which contained 4×10^9 platelets/ml in a modified Tyrode buffer solution adjusted to pH 7.4. Tyrode solution is an aqueous solution containing 136.9 mmol of NaCl, 2.68 mmol of KCl, 2.31 mmol of CaCl2, 1.0 mmol of MgCl2, 11.9 mmol of NaHCO3, 1.45 mmol of NaH2 PO4 and 5.55 mmol of glucose per liter. This solution was modified by adding 1.3 mM/l of CaCl2 and 2.5 g/l of gelatin. The platelets were obtained from 10 ml blood samples from each of three rabbits (New Zealand hybrids, body weight 3-4 kg). For this, the blood samples were treated with ethylenediaminetetraacetic acid and washed by the method of Artley et al. (Brit. J. Hamatol. 19 (1970), 7-17). A platelet-rich plasma was then initially separated by centrifugation (20 minutes at 400×g). The platelets were separated from the plasma by centrifuging again for 15 minutes at 1400×g. After centrifuging, the platelets remaining as a sediment were resuspended in a calcium-free Tyrode buffer solution. 0.4 mmol of lysine acetylsalicylate were then added and after 15 minutes the blood platelets were sedimented again. The sediment was resuspended in the abovementioned modified Tyrode buffer solution, and the number of platelets in the resulting suspension was adjusted to the desired content.
# A 40×10^-9 molar P.A.F. solution was used as the reagent. This solution was prepared from a 1.8×10^-3 molar stock solution in chloroform. For this, a 10μl sample of the stock solution was evaporated to dryness and redissolved in 180 μl of the modified Tyrode solution, to which 0.25% of dilapidated bovine serum albumin had been added. 10^-5 molar working solutions were then prepared from this and stored frozen. Samples of these solutions were appropriately diluted for the tests.
# To carry out the tests, 50 μl of the platelet solution and 10 μl of a 40×10^-5 molar solution of the compound to be investigated were added to 330 μl of the modified Tyrode buffer solution with stirring (1000 rpm) in an aggregation tube provided with a small magnetic stirrer. This corresponds to a final test substance concentration of 10^-5 mol/l. After a preincubation time of 90seconds, 10 μl of the P.A.F. preparation were added. The aggregation occurring in the aggregation tubes was measured for 4-5 minutes using a computerized aggregometer.
# The aggregation occurring in the test tubes containing only platelet suspension was rated as 0%. The aggregation occurring in test tubes containing platelet suspension and P.A.F. preparation was rated as 100%. The aggregation which still occurred in the presence of the test substances (i.e. during inhibition of the P.A.F.-induced platelet aggregation increase) was measured, and the resulting aggregation inhibition is calculated from this in %.
# [6] = test system: Passive cutaneous anaphylaxis (P.C.A.); experiment: Inhibition of passive cutaneous anaphylaxis (P.C.A.); format: in vivo, rat (Sprague-Dawley); conditions: Rattus norvegicus, 1 h; rats, 2 × 10^-5 mol/kg p.o., one hour before ovalbumin challenge
# Protocol: as §5
# The P.C.A. reaction was carried out according to the methods described by Goose et al. (J.N. Immunology 16 (1969), 749) and by Martin et al (Arch. Pharmacol. 316 (1981), 186}.
# The IgE-rich ovalbumin antiserum used in the test was obtained from immunized Brown-Norway rats. For immunization, the rats were given an i.p. injection of a mixture of 100 μg of ovalbumin with a Bordetella pertussis suspension (Vaxicoq®, Manufacturer: Institut Merieux, containing 5×10^9 organisms and 1.25 mg of Al(OH)3). After 20 days, the animals received a further i.p. injection of a solution of 10 μg of ovaIbumin in 0.5 ml of physiological saline solution for reimmunisation. After a further four days, the animals were bled, and the blood was centrifuged The antiserum obtained in this way was stored at -20° C. until use.
# as §6
# Sprague-Dawley rats having a body weight of 150-180 g were injected intradermally in one flank with 50 μl of a 1:75 dilution of the IgE-rich ovalbumin antiserum in physiological sodium chloride solution for passive sensitization to ovalbumin.
# 24 hours after sensitization a solution of 8.25 mg/kg of ovalbumin and 26.4 mg/kg of a blue dye (Evans' Blue) was administered i.v. to the rats according to Martin et al. to induce passive cutaneous anaphylaxis. The ovalbumin challenge caused a local anaphylactic reaction at the site at which the antiserum had been injected.
# as §7, §8, §9
smiles,measurement,setting,value
Cc1ccnc(N2CCN(CCc3c(C)n4c5c(cc(C(=O)c6ccc(Cl)cc6)cc35)CCC4)CC2)c1 [Example 82],inhibition at 10 µM,[1],58%
same,inhibition at 10 µM,[2],9%
Cc1ccnc(N2CCN(CCc3c(-c4ccccc4)n4c5c(cccc35)CCC4)CC2)c1 [Example 40],inhibition in vivo at 20 µmol/kg,[3],43%
same,Minimum toxic dose (lowest dose which caused death or severe toxic symptoms),[4],300 mg/kg
same,inhibition at 10 µM,[5],100%
same,inhibition in vivo at 20 µmol/kg,[6],70%
Cc1ccnc(N2CCN(CCc3c(C)n4c5c(cc(CC6CCCCC6)cc35)CCC4)CC2)c1 [Example 84],inhibition at 10 µM,[1],46%
same,inhibition at 10 µM,[2],20%
Cc1c(CCN2CCC(C(=O)c3ccccc3)CC2)c2cccc3c2n1CCC3C (stereo not drawn) [Example 56],inhibition in vivo at 20 µmol/kg,[3],50%
same,Minimum toxic dose (lowest dose which caused death or severe toxic symptoms),[4],300 mg/kg
same,inhibition at 10 µM,[5],42%
same,inhibition in vivo at 20 µmol/kg,[6],80%
